# Assay results from US20250129430A1, “HIGH ATP-AFFINITY PROTEIN AS THERAPEUTIC TARGET FOR INTRACTABLE CANCER MOLECULAR SUBTYPES AND INHIBITOR THEREOF” (VeraVerse Co., Ltd., priority 2021, published 2025).
# How the values were obtained:
# Assay in all cases: Cell viability drug screen, 12-point dose-response AUC
# Type in all cases: cell-based, human
# AGS = details: 72 hours; for area under the viability curve (AUC), normalized: AGS cells, 12-point dose-response
# How it was run: (§1)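 Luminescent viability readings, taken 15 min after reagent addition at room temperature, were normalized to the 0.5% DMSO control to build 12-point dose-response curves. Trapezoidal integration gave the AUC. Cells had been plated at 5×10^3 per well and then exposed to half-log dilutions for 72 h.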
# NCC19 = NCC19 cells, 72 hours; for area under the viability curve (AUC), normalized: 12-point dose-response
# How it was run: as §1
# MKN1 = MKN1 cells, 72 hours; for area under the viability curve (AUC), normalized: 12-point dose-response
# How it was run: as §1
# SNU216 = details: 72 hours; for area under the viability curve (AUC), normalized: SNU216 cells, 12-point dose-response
# How it was run: as §1
# SNU1750 = details: 72 hours; for area under the viability curve (AUC), normalized: SNU1750 cells, 12-point dose-response
# How it was run: as §1
# OCUM1 = OCUM1 cells, 72 hours; for area under the viability curve (AUC), normalized: 12-point dose-response
# How it was run: as §1
# KATO3 = KATO3 cells, 72 hours; for area under the viability curve (AUC), normalized: 12-point dose-response
# How it was run: as §1
# SK4 = details: 72 hours; for area under the viability curve (AUC), normalized: SK4 cells, 12-point dose-response
# How it was run: as §1
# SNU484 = details: 72 hours; for area under the viability curve (AUC), normalized: SNU484 cells, 12-point dose-response
# How it was run: as §1
# SNU16 = SNU16 cells, 72 hours; for area under the viability curve (AUC), normalized: 12-point dose-response
# How it was run: as §1
# MKN28 = MKN28 cells, 72 hours; for area under the viability curve (AUC), normalized: 12-point dose-response
# How it was run: as §1
# SNU668 = details: 72 hours; for area under the viability curve (AUC), normalized: SNU668 cells, 12-point dose-response
# How it was run: as §1
# MKN74 = MKN74 cells, 72 hours; for area under the viability curve (AUC), normalized: 12-point dose-response
# How it was run: as §1
# YCC2 = YCC2 cells, 72 hours; for area under the viability curve (AUC), normalized: 12-point dose-response
# How it was run: as §1
# SNU620 = SNU620 cells, 72 hours; for area under the viability curve (AUC), normalized: 12-point dose-response
# How it was run: as §1
# SNU638 = SNU638 cells, 72 hours; for area under the viability curve (AUC), normalized: 12-point dose-response
# How it was run: as §1
# NCC59 = NCC59 cells, 72 hours; for area under the viability curve (AUC), normalized: 12-point dose-response
# How it was run: as §1
# NCI_N87 = NCI_N87 cells, 72 hours; for area under the viability curve (AUC), normalized: 12-point dose-response
# How it was run: as §1
# NCC20 = NCC20 cells, 72 hours; for area under the viability curve (AUC), normalized: 12-point dose-response
# How it was run: as §1
# MKN45 = details: 72 hours; for area under the viability curve (AUC), normalized: MKN45 cells, 12-point dose-response
# How it was run: as §1
# SNU1 = SNU1 cells, 72 hours; for area under the viability curve (AUC), normalized: 12-point dose-response
# How it was run: as §1
# YCC3 = YCC3 cells, 72 hours; for area under the viability curve (AUC), normalized: 12-point dose-response
# How it was run: as §1
# SNU601 = SNU601 cells, 72 hours; for area under the viability curve (AUC), normalized: 12-point dose-response
# How it was run: as §1
# Hs746T = details: 72 hours; for area under the viability curve (AUC), normalized: Hs746T cells, 12-point dose-response
# How it was run: as §1
# YCC11 = details: 72 hours; for area under the viability curve (AUC), normalized: YCC11 cells, 12-point dose-response
# How it was run: as §1
# SNU1967 = SNU1967 cells, 72 hours; for area under the viability curve (AUC), normalized: 12-point dose-response
# How it was run: as §1
# NCC24 = NCC24 cells, 72 hours; for area under the viability curve (AUC), normalized: 12-point dose-response
# How it was run: as §1
# SNU719 = SNU719 cells, 72 hours; for area under the viability curve (AUC), normalized: 12-point dose-response
# How it was run: as §1
# FU97 = test system: FU97; parameters: Average Area Under the Viability Curve (AUC), AUC norm value: scale not given here; details: FU97 cells, 72 hours; for area under the viability curve (AUC), normalized: 12-point dose-response
# How it was run: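 Trapezoidal AUC of a 12-point, DMSO-normalized dose-response curve. Luminescent viability was measured after 72 h of exposure at 37° C to half-log serial dilutions (0.5% DMSO control), dosed 24 h after plating FU97 cells at 5×10^3 per well.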
smiles,measurement,setting,value
CCCOc1ccc2nc(NC(=O)OC)[nH]c2c1 [Oxybendazole],"area under the viability curve (AUC), normalized",AGS,−1.064
same,"area under the viability curve (AUC), normalized",NCC19,1.219
same,"area under the viability curve (AUC), normalized",MKN1,−0.5859
same,"area under the viability curve (AUC), normalized",SNU216,1.744
same,"area under the viability curve (AUC), normalized",SNU1750,0.4952
same,"area under the viability curve (AUC), normalized",OCUM1,1.059
same,"area under the viability curve (AUC), normalized",KATO3,3.472
same,"area under the viability curve (AUC), normalized",SK4,−0.1414
same,"area under the viability curve (AUC), normalized",SNU484,−0.00299
same,"area under the viability curve (AUC), normalized",SNU16,2.326
same,"area under the viability curve (AUC), normalized",MKN28,−0.1307
same,"area under the viability curve (AUC), normalized",SNU668,−0.3638
same,"area under the viability curve (AUC), normalized",MKN74,0.4498
same,"area under the viability curve (AUC), normalized",YCC2,0.7894
same,"area under the viability curve (AUC), normalized",SNU620,−1.528
same,"area under the viability curve (AUC), normalized",SNU638,−0.2808
same,"area under the viability curve (AUC), normalized",NCC59,2.518
same,"area under the viability curve (AUC), normalized",NCI_N87,−0.1928
same,"area under the viability curve (AUC), normalized",NCC20,−0.7466
same,"area under the viability curve (AUC), normalized",MKN45,2.187
same,"area under the viability curve (AUC), normalized",SNU1,−1.007
same,"area under the viability curve (AUC), normalized",YCC3,2.897
same,"area under the viability curve (AUC), normalized",SNU601,1.095
same,"area under the viability curve (AUC), normalized",Hs746T,1.204
same,"area under the viability curve (AUC), normalized",YCC11,−0.2902
same,"area under the viability curve (AUC), normalized",SNU1967,0
same,"area under the viability curve (AUC), normalized",NCC24,−1.131
same,"area under the viability curve (AUC), normalized",SNU719,3.17
same,"area under the viability curve (AUC), normalized",FU97,−0.3548
CN(C)Cc1c(C(=O)NCCOc2ccc(C(=O)NO)cc2)oc2ccccc12 [PCI-24781],"Average Area Under the Viability Curve (AUC), AUC norm value",AGS; AGS cells (non-SEM subtype),−1.161
same,"Average Area Under the Viability Curve (AUC), AUC norm value",NCC19,0.3282
same,"Average Area Under the Viability Curve (AUC), AUC norm value",MKN1,0.6581
same,"Average Area Under the Viability Curve (AUC), AUC norm value",SNU216; SNU216 cells (non-SEM subtype),0.03042
same,"Average Area Under the Viability Curve (AUC), AUC norm value",SNU1750; SNU1750 cells (SEM subtype),−1.499
same,"Average Area Under the Viability Curve (AUC), AUC norm value",OCUM1,0
same,"Average Area Under the Viability Curve (AUC), AUC norm value",KATO3,−0.2111
same,"Average Area Under the Viability Curve (AUC), AUC norm value",SK4; SK4 cells (SEM subtype),0.451
same,"Average Area Under the Viability Curve (AUC), AUC norm value",SNU484; SNU484 cells (SEM subtype),0.1533
same,"Average Area Under the Viability Curve (AUC), AUC norm value",SNU16,−1.233
same,"Average Area Under the Viability Curve (AUC), AUC norm value",MKN28,−0.378
same,"Average Area Under the Viability Curve (AUC), AUC norm value",SNU668; SNU668 cells (SEM subtype),0.53
same,"Average Area Under the Viability Curve (AUC), AUC norm value",MKN74,0.2128
same,"Average Area Under the Viability Curve (AUC), AUC norm value",YCC2,0.00064
same,"Average Area Under the Viability Curve (AUC), AUC norm value",SNU620,−0.6966
same,"Average Area Under the Viability Curve (AUC), AUC norm value",SNU638,−0.06055
same,"Average Area Under the Viability Curve (AUC), AUC norm value",NCC59,0.9766
same,"Average Area Under the Viability Curve (AUC), AUC norm value",NCI_N87,−0.3803
same,"Average Area Under the Viability Curve (AUC), AUC norm value",NCC20,−1.065
same,"Average Area Under the Viability Curve (AUC), AUC norm value",MKN45; MKN45 cells (non-SEM subtype),2.259
same,"Average Area Under the Viability Curve (AUC), AUC norm value",SNU1,0.3429
same,"Average Area Under the Viability Curve (AUC), AUC norm value",YCC3,0.8426
same,"Average Area Under the Viability Curve (AUC), AUC norm value",SNU601,0.6141
same,"Average Area Under the Viability Curve (AUC), AUC norm value",Hs746T; Hs746T cells (SEM subtype),−0.03183
same,"Average Area Under the Viability Curve (AUC), AUC norm value",YCC11; YCC11 cells (SEM subtype),−0.09531
same,"Average Area Under the Viability Curve (AUC), AUC norm value",SNU1967,−1.126
same,"Average Area Under the Viability Curve (AUC), AUC norm value",NCC24,−0.2766
same,"Average Area Under the Viability Curve (AUC), AUC norm value",SNU719,1.428
same,"Average Area Under the Viability Curve (AUC), AUC norm value",FU97,−1.786
"CC(=O)O[C@H]1C(=O)[C@@]2(C)[C@H]([C@H](OC(=O)c3ccccc3)[C@]3(O)C[C@H](OC(=O)[C@H](O)[C@@H](NC(=O)c4ccccc4)c4ccccc4)C(C)=C1C3(C)C)[C@]1(OC(C)=O)CO[C@@H]1C[C@@H]2O [Paclitaxel (Taxol), Paclitaxel]","area under the viability curve (AUC), normalized",AGS,−1.831
same,"area under the viability curve (AUC), normalized",NCC19,1.902
same,"area under the viability curve (AUC), normalized",MKN1,−1.258
same,"area under the viability curve (AUC), normalized",SNU216,2.148
same,"area under the viability curve (AUC), normalized",SNU1750,0.811
same,"area under the viability curve (AUC), normalized",OCUM1,2.909
same,"area under the viability curve (AUC), normalized",KATO3,5.3572
same,"area under the viability curve (AUC), normalized",SK4,−0.872
same,"area under the viability curve (AUC), normalized",SNU484,−0.3604
same,"area under the viability curve (AUC), normalized",SNU16,−0.5105
same,"area under the viability curve (AUC), normalized",MKN28,−0.2731
same,"area under the viability curve (AUC), normalized",SNU668,−0.02282
same,"area under the viability curve (AUC), normalized",MKN74,0.186
same,"area under the viability curve (AUC), normalized",YCC2,0.5673
same,"area under the viability curve (AUC), normalized",SNU620,−1.998
same,"area under the viability curve (AUC), normalized",SNU638,−0.3898
same,"area under the viability curve (AUC), normalized",NCC59,3.637
same,"area under the viability curve (AUC), normalized",NCI_N87,−1.013
same,"area under the viability curve (AUC), normalized",NCC20,0
same,"area under the viability curve (AUC), normalized",MKN45,1.473
same,"area under the viability curve (AUC), normalized",SNU1,−1.778
same,"area under the viability curve (AUC), normalized",YCC3,3.81
same,"area under the viability curve (AUC), normalized",SNU601,−1.106
same,"area under the viability curve (AUC), normalized",Hs746T,0.7342
same,"area under the viability curve (AUC), normalized",YCC11,−0.8302
same,"area under the viability curve (AUC), normalized",SNU1967,0.05016
same,"area under the viability curve (AUC), normalized",NCC24,−1.616
same,"area under the viability curve (AUC), normalized",SNU719,4.877
same,"area under the viability curve (AUC), normalized",FU97,0.989
